According to ChEMBL document CHEMBL1146570, “Eudesmane derivatives and other sesquiterpenes from Laggera alata” (J Nat Prod, 2003):

Experiments:
[1] = tested on: KB; test: Cytotoxicity against human KB cells after 72 hrs; assay type: functional, cell-based
[2] = tested on: SK-MEL; test: Cytotoxicity against human SK-MEL cells at 20 ug/mL after 72 hrs; assay type: functional
[3] = tested on: A549; test: Cytotoxicity against human A549 cells at 20 ug/mL after 72 hrs; assay type: functional; details: A549, 72 h

SMILES | IC50 [1] [µM] | inhibition at 20 µg/mL [2] [%] | inhibition at 20 µg/mL [3] [%]
C=C(C(=O)O)[C@@H]1CC[C@@]2(C)CC[C@@H](O)[C@@](C)(O)[C@@H]2C1 | > 100 |  | 
C=C(C(=O)O)[C@@H]1CC[C@@]2(C)CCC[C@@](C)(O)[C@@H]2C1 [ILICIC ACID] |  | 23.6 | 10.3
